Data from patent publication US12240854B2, “TRAF 6 inhibitors” (Helmholtz Zentrum München - Deutsches Forschungszentrum für …, priority 2018, dated 2025).
Entries after “also recorded” stand apart in the source; their conditions may differ.

Legend:
[1] = tested on: TRAF6 auto-ubiquitination in MEF cells; assay: Immunoprecipitation of TRAF6 for endogenous ubiquitination, MEF cells; assay type: cell-based, mouse
Method: 2.5×10^6 MEF cells were seeded, treated with compound for 6 hours and stimulated with IL-1β (3.5 ng/mL) for 10 minutes. Cells were lysed in Co-IP lysis buffer containing 1% SDS to eliminate all cellular interactions. After cell lysis and removal of input samples, the samples were diluted to 0.1% SDS and incubated with 5 μL TRAF6 antibody EP591Y (Abcam) and immunoprecipitated with Protein-G-Sepharose beads. After washing of the beads in Co-IP wash buffer, TRAF6 protein was eluted and levels of TRAF6 ubiquitination were detected by Western Blot analysis.

[2] = tested on: IMQ-induced psoriasis in Balb/C mice; assay: Imiquimod (IMQ)-induced psoriasis mouse model; assay type: in vivo
Method: To evaluate the anti-inflammatory activity of the compound C25-140 (compound 3), an Imiquimod (IMQ)-induced psoriasis mouse model was conducted by Washington Biotechnology, Inc. (Baltimore, USA). Per group, 8 male Balb/C mice were shaved in the back (1.5 cm×2 cm) and IMQ and C25-140 were applied topically to the shaved back and the right ear daily for 6 days. Thereby, C25-140 was dissolved in acetone and applied at a total dosage of 500 μg per day (2×250 μg). Mice were monitored and daily scores (erythema, scaling and thickness of back skin) were independently collected on a scale from 0 to 4: 0=none; 1=slight; 2=moderate; 3=marked and 4=very marked. Ear thickness was measured by electronic calipers as an indicator of edema. IL-17 cytokine secretion of the right ear tissue was measured by ELISA.

[3] = tested on: osteosarcoma cell line U2OS; assay: Cell growth of the osteosarcoma cell line U2OS with or without irradiation; assay type: cell-based
Method: For analysis of the cell growth of the osteosarcoma cell line U2OS, 5×10^3 cells were seeded in 96 well plates. 18 hours later, cells were treated with C25-140 (compound 3) or DMSO for 6 hours. Using a ^137caesium source (HWM-D2000), selected samples were irradiated with a dose of either 2 Gy or 4 Gy. Cell growth was measured every 24 hours for a period of 7 days by counting Hoechst33342 positive cells in an Operetta High-Content Imaging System (PerkinElmer) and the Harmony/Columbus analysis software (PerkinElmer).

[4] = tested on: IL-2 and TNFα secretion of Jurkat T-cells; assay: ELISA cytokine secretion, Jurkat T-cells; assay type: cell-based, human
Method: For measurement of cytokine secretion, 2×10^5 Jurkat T-cells or primary CD4^+ T-cells or human PBMCs per sample were seeded, treated with compound for 6 hours and stimulated as indicated. 20 hours after stimulation, supernatants were harvested and analyzed with the IL-2, IL-1β and TNFα Ready-Set-Go! ELISA (2nd Generation) kits provided by Affymatrix eBioscience.

[5] = tested on: p-IκBα (Ser32/36) in MEF cells; assay: ALPHASurefire p-IκBα / total IκBα in MEF cells; assay type: cell-based, mouse; conditions: IL-1β
Method: In order to detect protein levels of p-IκBα (Ser32/36) as well as total IκBa, 1×10^4 MEF cells were seeded in 96-well plates, treated with compound for 6 hours and stimulated with 1 ng/ml IL-1β for 7 minutes. The p-IκBα and total IκBα protein levels were analyzed using the ALPHASurefire kits (PerkinElmer) following the manufacturer's instruction. The general 2-plate protocol was conducted.

BJAB (GCB DLBCL) = assay: Cell viability in DLBCL, BJAB; assay type: cell-based; conditions: 30 μM, 9 days
Method: To determine the effects of C25-140 on MYD88-dependent ABC-DLBCL, we chose the HBL1 (ABC-DLBCL-MYD88 L265P), U2932 (ABC DLBCL-MYD88 wt) and BJAB (GCB DLBCL) cell lines. 1×10^6 cells of each cell line was seeded in 5 ml and treated with 30 μM compound C25-140 (compound 3) or DMSO. The entire experiment was carried out for 9 days. Every day 500 μl were taken and viable cell number was acquired using the ViCEII cell counter (Beckmann Coulter). At days 4 and 8 of the experiment the volume was again adjusted to 5 ml and samples were supplemented with 30 μM compound C25-140 or DMSO. This process was necessary to ensure linear proliferation of DMSO treated cells. All curves of C25-140 treated samples were referred to the corresponding DMSO treated controls.

cIAP1 = target: T1, cIAP1 (Homo sapiens, UniProt Q13490); assay: In vitro ubiquitination assay, cIAP1 ubiquitin ligase kit; assay type: biochemical; conditions: K63 chain formation
T1 construct: purchased Boston Biochem
Method: For analysis of cIAP1, MDM2, TRIM63, RNF4, ITCH and E6AP mediated poly-ubiquitination, the respective ubiquitin ligase kit from Boston Biochem (K-102, K-260, K-200B, K-220, K-240 and K-270) was used. Here, reaction buffer, E1, E2 and E3 enzyme (and p53 substrate in case of MDM2) were mixed and pre-incubated with compound or DMSO for 5 minutes at room temperature before adding Mg^2+-ATP and mono-ubiquitin for reaction start. Ubiquitination was visualized by Western Blot analyses.

[6] = tested on: TRAF6 auto-ubiquitination in Jurkat T-cells; assay: Immunoprecipitation of TRAF6 for endogenous ubiquitination, Jurkat T-cells; assay type: cell-based, human; conditions: PMA/Ionomycin
[7] = tested on: Diet-Induced-Obesity (DIO) mice; assay: Diet-Induced-Obesity (DIO) mouse study; assay type: in vivo; conditions: 7.4 mg/kg IP once daily
Method: Mice were fed a high-fat-diet until they reached a body weight of at least 40 g and developed […]. These mice were separated in control group and a group for C25-140 (compound 3) injection. Mice were treated every day with 14 μmol/kg (=7.4 mg/kg) C25-140 intraperitoneally for a period of 20 days. Thereby, C25-140 was dissolved in 2.9% DMSO, 1.5% Tween-80 and 1×PBS. Every day before injection, the body weight and food intake were measured. On day 20, mice were sacrificed two hours after compound injection and […] white adipose tissue from both body sites was removed, frozen in liquid nitrogen and stored at −80° C.

[8] = tested on: 87 primary molecular targets (kinases, non-kinase enzymes, nuclear receptors, GPCRs, transporters and ion channels); assay: SafetyScreen87 (Eurofins Cerep Panlabs); assay type: binding; conditions: 10 μM
Method: The SafetyScreen87, a total of 87 assays, was carried out at Eurofins Cerep Panlabs. 87 primary molecular targets including 13 enzyme assays (kinases and non-kinase enzymes) and 74 binding assays (nuclear receptors, GPCRs, transporters and ion channels) were performed at a compound concentration of 10 μM C25-140. Each of the 87 assay reactions was performed at the optimised condition that was historically available at Eurofins Cerep Panlabs. In parallel to C25-140, a reference compound for each of the 87 reactions was concurrently tested to guarantee optimal setting of the assays. In this study the reference compounds performed in the same range as historic Ki values.

[9] = topical, 2x250 μg per day, 6 days
[10] = topical, 2x250 μg per day, 6 days, listed as 25-140

T1 sequence (Q13490 whole entry): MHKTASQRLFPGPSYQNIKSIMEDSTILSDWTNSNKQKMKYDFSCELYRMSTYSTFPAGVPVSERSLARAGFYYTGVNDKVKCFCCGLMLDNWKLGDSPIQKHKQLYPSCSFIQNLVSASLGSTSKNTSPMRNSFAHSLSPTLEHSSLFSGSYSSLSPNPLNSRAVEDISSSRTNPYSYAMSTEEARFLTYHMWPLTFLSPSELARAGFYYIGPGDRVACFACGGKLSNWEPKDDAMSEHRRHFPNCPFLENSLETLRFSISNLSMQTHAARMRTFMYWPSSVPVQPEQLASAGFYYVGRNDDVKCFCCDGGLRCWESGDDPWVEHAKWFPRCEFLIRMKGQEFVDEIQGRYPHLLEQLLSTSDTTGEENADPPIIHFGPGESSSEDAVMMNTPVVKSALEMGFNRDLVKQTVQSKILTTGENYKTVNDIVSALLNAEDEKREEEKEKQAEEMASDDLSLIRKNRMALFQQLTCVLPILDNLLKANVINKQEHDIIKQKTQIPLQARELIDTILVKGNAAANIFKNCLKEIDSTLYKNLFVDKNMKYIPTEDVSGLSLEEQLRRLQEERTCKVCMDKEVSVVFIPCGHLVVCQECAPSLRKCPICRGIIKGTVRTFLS

## Cc1nn(-c2ccc3nnc(C)n3n2)c(C)c1CCC(=O)N1CCC(Cc2ccccc2)CC1 [Example C25-140, 1-(4-Benzylpiperidin-1-yl)-3-(3,5-dimethyl-1-(3-methyl-[1,2,4]-triazolo-[4,3-b]-pyridazin-6-yl)-1H-pyrazol-4-yl)-propan-1-one]
[1]
  IL-1β-induced auto-ubiquitination of TRAF6: reduced TRAF6 auto-ubiquitination
[2]; IMQ-induced psoriasis
  psoriasis symptoms / disease outcome (in words): ameliorates disease outcomes; also recorded: ameliorates symptoms
[2]; day 6, ELISA
  IL-17 cytokine in right ear tissue: significantly reduced; also recorded: decreased
[2]; [9]
  cumulative score: reduces
  ear thickness: significantly reduced
  erythema score of the back: improvement of the disease symptoms
  scaling score: improvement of the disease symptoms
  thickness score of the back: significantly reduce
[2]; [10]
  cumulative score: significantly reduce
  ear thickness: improvement of the disease symptoms
[3]; 30 μM compound + 2Gy irradiation
  osteosarcoma cell growth: synergistic effects; also recorded: boosted the effect to the region of 4Gy irradiation; also recorded: decreases cell growth to the same extent as the higher dose of irradiation (4Gy)
[3]; compound alone at 30 μM
  osteosarcoma cell growth: reducing proliferation of U2OS cells to the same degree as 2Gy irradiation; also recorded: same inhibitory impact; also recorded: reduced
[4]
  cytokine secretion of IL-2 and TNFα: reduced; also recorded: dose-dependently decreased
[5]
  activity in cell-based ALPHASurefire (NF-κB activation, p-IκBα): improved inhibitory activity; also recorded: more active
BJAB (GCB DLBCL)
  viability of GCB DLBCL: did not show any difference in viability; also recorded: not affected
cIAP1
  auto-ubiquitination of cIAP1: indeed affected; also recorded: dose-dependently diminished
[6]
  TRAF6 auto-ubiquitination upon TCR stimulation: dose-dependently diminished; also recorded: dose-dependently reduced
[7]; 20 days
  food intake: did not differ; also recorded: remains unaffected
[7]; 20 days, high-fat-diet
  body weight gain: reduces gain of weight; also recorded: hardly increased body weight; also recorded: milder body weight gain
[7]; day 20
  mRNA levels of IL-1β and VCAM in epidermal white adipose tissue: reduces IL-1β expression; also recorded: significantly reduced; also recorded: decreased
[8]
  effect on / binding to the 87 SafetyScreen87 targets: no significant binding; also recorded: did not markedly affect any of the 87 molecular targets
